Assay results from US9120807B2, “Thienopyrimidine compounds” (Vernalis (R&D) Ltd., priority 2007, dated 2015).

What was measured:
Format in all cases: cell-based
[1] = molecular target: human adenosine A1 receptor (Homo sapiens (Human), UniProt P30542); experiment: FLIPR calcium flux functional assay, A1 receptor; conditions: for Kb: mammalian cell line expressing human A1, calcium flux; for A1/A2b: selectivity ratio of Kb values
Procedure: (§1) The use of a Fluorometric Imaging Plate Reader (FLIPR) to measure calcium flux in Adenosine-receptor expressing cells is a well-established technique. In this assay calcium flux is triggered by receptor activation and measured through the fluorescence of an incorporated calcium-sensitive dye. The potencies shown were determined using expressed human adenosine A2B receptors in mammalian cell lines. Selectivity values were obtained by using mammalian cell lines expressing the human adenosine A1, A2A and A3 receptors. Compound potency was determined from dose response curves and is reported as an IC50 value.
(§2) All examples were tested for activity in the functional assay described above.

[2] = molecular target: human adenosine A2A receptor (Homo sapiens (Human), UniProt P29274); experiment: FLIPR calcium flux functional assay, A2A receptor; conditions: for Kb: mammalian cell line expressing human A2A, calcium flux; for A2a/A2b: selectivity ratio of Kb values
Chain of human adenosine A2A receptor (P29274 whole entry): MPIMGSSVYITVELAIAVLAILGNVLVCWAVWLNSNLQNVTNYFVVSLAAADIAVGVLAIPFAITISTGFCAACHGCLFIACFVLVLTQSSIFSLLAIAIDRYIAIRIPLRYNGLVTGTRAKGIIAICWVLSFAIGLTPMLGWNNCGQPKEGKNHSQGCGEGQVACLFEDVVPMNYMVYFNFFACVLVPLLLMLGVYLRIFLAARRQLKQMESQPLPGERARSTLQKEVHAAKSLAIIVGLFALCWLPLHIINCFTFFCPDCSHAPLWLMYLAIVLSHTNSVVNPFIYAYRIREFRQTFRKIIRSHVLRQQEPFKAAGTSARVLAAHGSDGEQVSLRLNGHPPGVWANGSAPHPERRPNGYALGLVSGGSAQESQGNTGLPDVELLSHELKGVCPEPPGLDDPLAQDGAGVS
Procedure: as §1, §2

[3] = molecular target: human adenosine A3 receptor (Homo sapiens (Human), UniProt P0DMS8); experiment: FLIPR calcium flux functional assay, A3 receptor; conditions: for Kb: mammalian cell line expressing human A3, calcium flux; for A3/A2b: selectivity ratio of Kb values
Chain of human adenosine A3 receptor (P0DMS8 whole entry): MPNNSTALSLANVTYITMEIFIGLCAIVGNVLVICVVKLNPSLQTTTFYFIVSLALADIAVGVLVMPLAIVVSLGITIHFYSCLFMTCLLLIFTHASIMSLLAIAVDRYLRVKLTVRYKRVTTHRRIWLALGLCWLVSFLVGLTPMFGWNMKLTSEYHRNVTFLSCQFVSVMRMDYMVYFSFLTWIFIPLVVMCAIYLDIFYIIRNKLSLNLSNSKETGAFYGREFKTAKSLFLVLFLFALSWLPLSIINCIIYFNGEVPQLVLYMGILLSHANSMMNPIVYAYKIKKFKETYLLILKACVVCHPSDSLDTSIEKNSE
Procedure: as §1, §2

[4] = molecular target: human adenosine A2B receptors (Homo sapiens (Human), UniProt P29275); experiment: FLIPR calcium flux functional assay, A2B receptor; conditions: mammalian cell line expressing human A2B
Chain of human adenosine A2B receptors (P29275 whole entry): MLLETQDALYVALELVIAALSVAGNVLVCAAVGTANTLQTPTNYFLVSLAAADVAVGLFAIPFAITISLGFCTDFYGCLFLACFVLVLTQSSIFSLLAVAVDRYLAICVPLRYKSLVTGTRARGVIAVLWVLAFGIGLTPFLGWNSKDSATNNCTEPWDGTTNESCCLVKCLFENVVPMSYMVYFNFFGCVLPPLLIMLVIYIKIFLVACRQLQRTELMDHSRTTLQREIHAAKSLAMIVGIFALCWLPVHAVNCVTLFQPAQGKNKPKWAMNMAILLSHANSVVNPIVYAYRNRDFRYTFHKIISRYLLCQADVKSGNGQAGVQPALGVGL
Procedure: as §1, §2

Chain of human adenosine A1 receptor (P30542 whole entry): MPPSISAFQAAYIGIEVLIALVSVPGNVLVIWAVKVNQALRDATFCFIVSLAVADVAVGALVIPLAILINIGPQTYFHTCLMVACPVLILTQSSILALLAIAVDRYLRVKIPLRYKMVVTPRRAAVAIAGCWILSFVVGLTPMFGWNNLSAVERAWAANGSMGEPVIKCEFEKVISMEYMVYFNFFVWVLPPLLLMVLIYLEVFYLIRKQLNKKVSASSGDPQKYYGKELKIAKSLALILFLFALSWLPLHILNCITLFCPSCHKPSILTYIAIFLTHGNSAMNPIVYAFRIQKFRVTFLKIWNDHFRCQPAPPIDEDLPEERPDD

Kb [1]	A1/A2b [1]	Kb [2]	A2a/A2b [2]	Kb [3]	A3/A2b [3]	Kb [4]	SMILES
0.0576 µM	41	0.277 µM	198	0.0229 µM	16	0.0014 µM	CNc1cc2nc(NCc3cccnc3)nc(C(=O)c3cccs3)c2s1 [Example 6, {6-Methylamino-2-[(pyridin-3-ylmethyl)-amino]-thieno[3,2-d]pyrimidin-4-yl}-thiophen-2-yl-methanone]
0.0194 µM	3	0.318 µM	49	0.13 µM	20	0.0065 µM	CN(C)c1cc2nc(NCc3cccnc3)nc(C(=O)c3cccs3)c2s1 [Example 7, {6-dimethylamino-2-[(pyridine-3-ylmethyl)-amino]-thieno[3,2-d]pyrimidin-4-yl}-thiophen-2-yl-methanone]
0.118 µM	18	0.726 µM	109	0.0373 µM	6	0.0067 µM	CCNc1cc2nc(NCc3cccnc3)nc(C(=O)c3cccs3)c2s1 [Example 8, {6-Ethylamino-2-[(pyridin-3-ylmethyl)-amino]-thieno[3,2-d]pyrimidin-4-yl}-thiophen-2-yl-methanone]
1.1 µM	155	1.4 µM	>196	0.233 µM	33	0.0071 µM	Nc1cc2nc(NCc3cccnc3)nc(C(=O)c3cccs3)c2s1 [Example 9, {6-Amino-2-[(pyridin-3-ylmethyl)-amino]-thieno[3,2-d]pyrimidin-4-yl}-thiophen-2-yl-methanone]
0.161 µM	3	3.75 µM	>71	0.747 µM	14	0.0523 µM	C=Cc1cc2nc(NCc3cccnc3)nc(C(=O)c3cccs3)c2s1 [Example 10, {2-[(Pyridin-3-ylmethyl)-amino]-6-vinyl-thieno[3,2-d]pyrimidin-4-yl}-thiophen-2-yl-methanone]
0.216 µM	6	3.75 µM	>102	0.361 µM	10	0.0367 µM	CCc1cc2nc(NCc3cccnc3)nc(C(=O)c3cccs3)c2s1 [Example 11, {6-Ethyl-2-[(pyridin-3-ylmethyl)-amino]-thieno[3,2-d]pyrimidin-4-yl}-thiophen-2-yl-methanone]
0.256 µM	4	0.828 µM	12	0.308 µM	4	0.0689 µM	O=C(c1cccs1)c1nc(NCc2cccnc2)nc2cc(NCc3cccnc3)sc12 [Example 12, {6-(3-picolylamino)-2-[(pyridin-3-ylmethyl)-amino]-thieno[3,2-d]pyrimidin-4-yl}-thiophen-2-yl-methanone]
